Results: ChEMBL document CHEMBL5247659, “Design, Structure-Activity Relationships, and In Vivo Evaluation of Potent and Brain-Penetrant Imidazo[1,2-b]pyridazines as Glycogen Synthase Kinase-3β (GSK-3β) Inhibitors” (J Med Chem, 2023)
One block for each molecule: values may come before it.

Assays:
[1] = target: Glycogen synthase kinase-3 alpha (Homo sapiens, UniProt P49840); assay: Inhibition of full length GST-tagged human recombinant GSK3-alpha using FL-KRREILSRRP[ps]ERYR-NH2 as substrate incubated for 20 hrs
[2] = Inhibition of N-terminal 6-His tagged human recombinant GSK3-beta H355L mutant using FL-KRREILSRRP[ps]ERYR-NH2 as substrate incubated for 20 hrs
[3] = Inhibition of tau 4R1N phosphorylation (unknown origin) at S396 residue transfected in human U2OS cells coexpressing GFP-tagged beta catenin incubated overnight by high content imaging assay
[4] = Metabolic stability in mouse liver microsomes assessed as parent compound remaining at 0.5 uM incubated for 10 mins by LC-MS/MS analysis; format: ADME, Microsome; details: read-out: Stability
[5] = Plasma protein binding in human assessed as unbound fraction at 10 uM measured for 5 hrs by equilibrium dialysis based LC-MS/MS analysis; format: ADME, cell-free
[6] = Permeability of compound at pH 5.5 incubated for 4 hrs by PAMPA assay; format: ADME; details: read-out: permeability
[7] = Permeability across apical to basolateral side in human Caco-2 cells at 3 uM incubated for 2 hrs by LC-MS/MS analysis; format: ADME, cell-based; details: read-out: permeability
[8] = Plasma protein binding in mouse assessed as unbound fraction at 10 uM measured for 5 hrs by equilibrium dialysis based LC-MS/MS analysis; format: ADME, cell-free
[9] = Metabolic stability in human liver microsomes assessed as parent compound remaining at 0.5 uM incubated for 10 mins by LC-MS/MS analysis; format: ADME, Microsome; details: read-out: Stability
[10] = Permeability across basolateral to apical side in human Caco-2 cells at 3 uM incubated for 2 hrs by LC-MS/MS analysis; format: ADME, cell-based; details: read-out: permeability
[11] = Permeability of compound at pH 7.4 incubated for 4 hrs by PAMPA assay; format: ADME; details: read-out: permeability
[12] = target: P-glycoprotein (ABCB1) (Homo sapiens, UniProt P08183); assay: Substrate activity at P-glycoprotein in human Caco-2 cells assessed as efflux ratio of permeability across basolateral to apical side over apical to basolateral side at 3 uM incubated for 2 hrs by LC-MS/MS analysis; format: ADME, cell-based
[13] = Oral bioavailability in 8 hr fasted C57BL6 mouse at 10 mg/kg; format: ADME, organism-based; details: in vivo
[14] = Half life in 8 hr fasted C57BL6 mouse at 2 mg/kg, iv; format: ADME, organism-based; details: in vivo
[15] = MRT in 8 hr fasted C57BL6 mouse at 2 mg/kg, iv; format: ADME, organism-based; details: in vivo
[16] = Volume of distribution at steady state in 8 hr fasted C57BL6 mouse at 2 mg/kg, iv; format: ADME, organism-based; details: in vivo, read-out: Vdss
[17] = Clearance in 8 hr fasted C57BL6 mouse at 2 mg/kg, iv; format: ADME, organism-based; details: in vivo
[18] = AUC tot in 8 hr fasted C57BL6 mouse at 10 mg/kg, po; format: ADME, organism-based; set-up: dose 10 mg/kg, route po; details: in vivo
[19] = Cmax in 8 hr fasted C57BL6 mouse at 10 mg/kg, po; format: ADME, organism-based; set-up: dose 10 mg/kg, route po; details: in vivo
[20] = target: Glycogen synthase kinase-3 beta (Homo sapiens, UniProt P49841); assay: Inhibition of GSK3-beta (unknown origin)
Chain of Glycogen synthase kinase-3 beta (P49841 whole entry): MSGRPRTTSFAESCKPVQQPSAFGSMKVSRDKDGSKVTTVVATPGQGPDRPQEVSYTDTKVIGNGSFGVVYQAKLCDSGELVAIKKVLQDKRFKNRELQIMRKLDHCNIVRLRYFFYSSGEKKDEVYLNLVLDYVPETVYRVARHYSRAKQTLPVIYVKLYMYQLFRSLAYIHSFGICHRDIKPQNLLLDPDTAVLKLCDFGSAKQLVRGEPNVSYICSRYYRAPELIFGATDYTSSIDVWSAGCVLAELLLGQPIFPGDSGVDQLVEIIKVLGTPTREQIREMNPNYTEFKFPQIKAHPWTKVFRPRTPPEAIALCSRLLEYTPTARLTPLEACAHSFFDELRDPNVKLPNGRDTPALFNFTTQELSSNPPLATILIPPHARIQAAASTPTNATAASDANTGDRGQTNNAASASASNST

Chain of Glycogen synthase kinase-3 alpha (P49840 whole entry): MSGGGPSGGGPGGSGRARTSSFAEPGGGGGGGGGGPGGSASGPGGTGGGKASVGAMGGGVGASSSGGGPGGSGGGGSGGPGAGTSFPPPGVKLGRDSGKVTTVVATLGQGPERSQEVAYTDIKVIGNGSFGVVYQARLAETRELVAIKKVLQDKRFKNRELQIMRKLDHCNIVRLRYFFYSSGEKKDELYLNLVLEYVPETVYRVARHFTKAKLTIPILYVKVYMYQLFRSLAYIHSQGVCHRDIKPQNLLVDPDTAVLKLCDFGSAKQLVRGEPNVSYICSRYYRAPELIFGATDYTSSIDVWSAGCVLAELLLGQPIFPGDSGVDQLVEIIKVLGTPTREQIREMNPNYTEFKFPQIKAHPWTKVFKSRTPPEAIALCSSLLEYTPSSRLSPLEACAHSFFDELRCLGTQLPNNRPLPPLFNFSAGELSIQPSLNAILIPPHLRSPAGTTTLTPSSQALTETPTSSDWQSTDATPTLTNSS
Chain of P-glycoprotein (ABCB1) (P08183 whole entry): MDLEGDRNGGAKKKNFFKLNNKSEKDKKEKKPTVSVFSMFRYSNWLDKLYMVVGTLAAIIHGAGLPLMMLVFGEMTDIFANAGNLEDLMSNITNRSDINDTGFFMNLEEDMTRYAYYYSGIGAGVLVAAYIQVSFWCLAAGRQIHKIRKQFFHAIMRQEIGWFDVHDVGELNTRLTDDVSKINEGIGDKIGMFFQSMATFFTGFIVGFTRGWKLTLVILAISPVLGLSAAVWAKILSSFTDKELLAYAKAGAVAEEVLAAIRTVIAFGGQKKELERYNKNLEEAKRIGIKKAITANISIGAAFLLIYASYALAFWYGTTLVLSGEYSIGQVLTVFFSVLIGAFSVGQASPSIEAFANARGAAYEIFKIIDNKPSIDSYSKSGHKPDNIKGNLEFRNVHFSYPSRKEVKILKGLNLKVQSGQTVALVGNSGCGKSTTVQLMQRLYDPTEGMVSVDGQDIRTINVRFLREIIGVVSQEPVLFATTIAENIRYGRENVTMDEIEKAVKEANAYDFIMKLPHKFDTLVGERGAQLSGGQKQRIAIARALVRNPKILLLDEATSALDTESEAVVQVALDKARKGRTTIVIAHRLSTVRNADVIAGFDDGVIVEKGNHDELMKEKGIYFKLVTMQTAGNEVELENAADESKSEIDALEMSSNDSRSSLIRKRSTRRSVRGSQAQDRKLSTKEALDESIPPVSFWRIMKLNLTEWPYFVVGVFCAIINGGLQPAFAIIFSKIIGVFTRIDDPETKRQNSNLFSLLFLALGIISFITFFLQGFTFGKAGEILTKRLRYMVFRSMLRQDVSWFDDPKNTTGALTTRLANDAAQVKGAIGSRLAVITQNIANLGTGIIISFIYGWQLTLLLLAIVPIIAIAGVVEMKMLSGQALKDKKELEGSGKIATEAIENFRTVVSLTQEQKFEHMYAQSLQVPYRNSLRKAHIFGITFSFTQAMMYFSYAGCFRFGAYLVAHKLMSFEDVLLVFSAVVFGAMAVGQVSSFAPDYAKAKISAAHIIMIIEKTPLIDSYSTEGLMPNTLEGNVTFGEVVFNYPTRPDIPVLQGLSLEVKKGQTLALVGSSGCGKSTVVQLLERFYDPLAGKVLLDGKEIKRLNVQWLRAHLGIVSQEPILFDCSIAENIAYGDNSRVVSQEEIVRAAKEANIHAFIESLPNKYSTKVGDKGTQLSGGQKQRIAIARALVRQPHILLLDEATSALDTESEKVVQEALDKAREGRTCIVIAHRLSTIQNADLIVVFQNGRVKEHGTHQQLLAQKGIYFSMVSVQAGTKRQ

IC50 [1]: 2 nM
IC50 [2]: 3.5 nM
Compound: O=C(Nc1cnccc1-c1ccccc1)c1ccnn2c(NCC3CC3)cnc12

IC50 [1]: 0.41 nM
IC50 [3]: 83 nM
IC50 [2]: 0.7 nM
Compound: CC(C)Oc1ccncc1NC(=O)c1ccnn2cc(-c3ccccc3)nc12

IC50 [1]: 0.24 nM
IC50 [2]: 1.1 nM
Compound: O=C(Nc1cnccc1N1CCCCC1)c1ccnn2cc(-c3ccccc3)nc12

IC50 [1]: 0.1 nM
IC50 [2]: 0.13 nM
Compound: C[C@H]1CN(c2ccncc2NC(=O)c2ccnn3cc(-c4ccccc4)nc23)CCO1

IC50 [1]: 0.09 nM
IC50 [2]: 0.29 nM
Compound: O=C(Nc1cnccc1OCC(F)(F)F)c1ccnn2cc(-c3ccccc3)nc12

remaining at 10 min, 0.5 µM [4]: 36%
fraction unbound at 5 h, 10 µM [5]: 0.005
Papp at 4 h [6]: 58.1 ×10⁻⁶ cm/s
IC50 [1]: 0.22 nM
Papp A→B at 2 h, 3 µM [7]: 7 ×10⁻⁶ cm/s
fraction unbound at 5 h, 10 µM [8]: 0.002
IC50 [3]: 30 nM
IC50 [2]: 0.37 nM
remaining at 10 min, 0.5 µM [9]: 40%
Papp B→A at 2 h, 3 µM [10]: 3 ×10⁻⁶ cm/s
Papp at 4 h [11]: 64.2 ×10⁻⁶ cm/s
efflux ratio at 2 h, 3 µM [12]: < 1
Compound: O=C(Nc1cnccc1N1CCC(F)(F)CC1)c1ccnn2cc(-c3ccccc3)nc12

remaining at 10 min, 0.5 µM [4]: 4%
fraction unbound at 5 h, 10 µM [5]: 0.015
bioavailability [13]: 37%
half-life [14]: 1.1 h
Papp at 4 h [6]: 86.9 ×10⁻⁶ cm/s
Papp A→B at 2 h, 3 µM [7]: 22.3 ×10⁻⁶ cm/s
fraction unbound at 5 h, 10 µM [8]: 0.031
IC50 [3]: 60 nM
MRT [15]: 0.6 h
Vd [16]: 1.9 L/kg
IC50 [2]: 2.6 nM
remaining at 10 min, 0.5 µM [9]: 3%
Papp B→A at 2 h, 3 µM [10]: 13.3 ×10⁻⁶ cm/s
clearance [17]: 49.5 mL/min/kg
AUC [18]: 3.3 µM·h
Cmax [19]: 1.3 µM
Papp at 4 h [11]: 107 ×10⁻⁶ cm/s
efflux ratio at 2 h, 3 µM [12]: < 1
Compound: CC1CN(c2ccncc2NC(=O)c2ccnn3cc(C4CC4)nc23)CCO1 (centres undefined)

IC50 [2]: 3.4 nM
Compound: C[C@@H]1COCCN1c1ccncc1NC(=O)c1ccnn2cc(-c3ccccc3)nc12

IC50 [2]: 9 nM
Compound: O=C(Nc1cnccc1N1CCOCC1)c1ccnn2c(NCC3CC3)cnc12

IC50 [1]: 0.34 nM
IC50 [2]: 0.82 nM
Compound: C[C@@H]1CN(c2ccncc2NC(=O)c2ccnn3cc(-c4ccccc4)nc23)CCO1

IC50 [1]: 0.38 nM
IC50 [2]: 0.57 nM
Compound: COc1ccccc1-c1cn2nccc(C(=O)Nc3cnccc3N3CCOC(C)C3)c2n1 (centres undefined)

IC50 [1]: 0.18 nM
IC50 [3]: 120 nM
IC50 [2]: 0.43 nM
Compound: O=C(Nc1cnccc1N1CCC(F)(F)CC1)c1ccnn2cc(C3CC3)nc12

IC50 [1]: 0.44 nM
IC50 [2]: 1.9 nM
Compound: O=C(Nc1cnccc1-c1ccc(F)cc1)c1ccnn2cc(C3CC3)nc12

IC50 [2]: 63 nM
Compound: Cc1ccncc1NC(=O)c1ccnn2c(NCC3CC3)cnc12

IC50 [2]: 5.2 nM
Compound: CC1CN(c2ccncc2NC(=O)c2ccnn3c(NCC4CC4)cnc23)CCO1 (centres undefined)

IC50 [2]: 6.7 nM
Compound: CC(C)Oc1ccncc1NC(=O)c1ccnn2c(NCC3CC3)cnc12

IC50 [1]: 1.4 nM
IC50 [3]: 41 nM
IC50 [2]: 0.87 nM
Compound: O=C(Nc1cnccc1N1CCC(F)(F)CC1)c1ccnn2c(NCC3CC3)cnc12

IC50 [1]: 0.57 nM
IC50 [2]: 1.4 nM
Compound: CC1CN(c2ccncc2NC(=O)c2ccnn3cc(-c4ccc(C(F)(F)F)cc4)nc23)CCO1 (centres undefined)

IC50 [1]: 0.32 nM
Compound: C[C@H]1COCCN1c1ccncc1NC(=O)c1ccnn2cc(-c3ccccc3)nc12

IC50 [1]: 6.7 nM
Compound: O=C(Nc1cccnc1)c1ccnn2cc(-c3ccccc3)nc12

remaining at 10 min, 0.5 µM [4]: 92%
fraction unbound at 5 h, 10 µM [5]: 0.003
Papp at 4 h [6]: 96 ×10⁻⁶ cm/s
IC50 [1]: 1.1 nM
fraction unbound at 5 h, 10 µM [8]: 0.002
IC50 [2]: 1.6 nM
remaining at 10 min, 0.5 µM [9]: 91%
Compound: O=C(Nc1cnccc1-c1ccc(F)cc1)c1ccnn2cc(-c3ccccc3)nc12

IC50 [2]: 14 nM
Compound: O=C(Nc1cnc(Cl)cc1N1CCC(F)(F)CC1)c1ccnn2cc(-c3ccccc3)nc12

IC50 [1]: 0.23 nM
IC50 [2]: 0.78 nM
Compound: O=C(Nc1cnccc1N1CCOCC1)c1ccnn2cc(-c3ccc(C(F)(F)F)cc3)nc12

IC50 [1]: 7.5 nM
IC50 [2]: 37 nM
Compound: COc1cncc(NC(=O)c2ccnn3cc(-c4ccccc4)nc23)c1

IC50 [2]: 1.5 nM
Compound: CS(=O)(=O)c1ccncc1NC(=O)c1ccnn2cc(-c3ccccc3)nc12

IC50 [1]: 2.4 nM
IC50 [2]: 4.6 nM
Compound: O=C(Nc1cnccc1N1CCC(F)(F)CC1)c1ccnn2ccnc12

IC50 [20]: 2 nM
Compound: CC(C)OCCCC(=O)c1n[nH]cc1NC(=O)c1ccccc1

IC50 [2]: 7 nM
Compound: CC1CN(c2ccncc2NC(=O)c2ccnn3ccnc23)CCO1 (centres undefined)

IC50 [1]: 510 nM
IC50 [2]: 220 nM
Compound: O=C(Nc1cccnc1)c1ccnn2c(NCC3CC3)cnc12

remaining at 10 min, 0.5 µM [4]: 83%
fraction unbound at 5 h, 10 µM [5]: < 0.001
Papp at 4 h [6]: 20.2 ×10⁻⁶ cm/s
fraction unbound at 5 h, 10 µM [8]: 0.003
IC50 [3]: 910 nM
IC50 [2]: 3.6 nM
remaining at 10 min, 0.5 µM [9]: 79%
Papp at 4 h [11]: 28.2 ×10⁻⁶ cm/s
Compound: O=C(Nc1cnccc1-c1ccccc1)c1ccnn2cc(-c3ccccc3)nc12

remaining at 10 min, 0.5 µM [4]: 9%
fraction unbound at 5 h, 10 µM [5]: 0.012
bioavailability [13]: 100%
half-life [14]: 3.1 h
Papp at 4 h [6]: 7.8 ×10⁻⁶ cm/s
IC50 [1]: 0.21 nM
Papp A→B at 2 h, 3 µM [7]: 32.2 ×10⁻⁶ cm/s
fraction unbound at 5 h, 10 µM [8]: 0.01
IC50 [3]: 36 nM
MRT [15]: 2.4 h
Vd [16]: 1.5 L/kg
IC50 [2]: 0.42 nM
remaining at 10 min, 0.5 µM [9]: 31%
Papp B→A at 2 h, 3 µM [10]: 9.9 ×10⁻⁶ cm/s
clearance [17]: 10.6 mL/min/kg
AUC [18]: 47 µM·h
Cmax [19]: 10.7 µM
Papp at 4 h [11]: 29.8 ×10⁻⁶ cm/s
efflux ratio at 2 h, 3 µM [12]: < 1
Compound: O=C(Nc1cnccc1N1CCOCC1)c1ccnn2cc(-c3ccccc3)nc12

IC50 [2]: 3.5 nM
Compound: Cc1ccncc1NC(=O)c1ccnn2cc(-c3ccccc3)nc12
